Experimental data taken from patent publication US20240114902A1, “COMPOSITIONS AND METHODS FOR DETERRING OVIPOSITION BY FRUIT FLIES” (The United States of America, as represented by The …, priority 2022, published 2024).

Tested on: Bactrocera dorsalis
Experiment: B. dorsalis spatial deterrence, two-choice traps baited with guava juice
Format: in vivo
Conditions: tested individually
Method: In addition to CFA, a series of odd-numbered carbon fatty acids (C9:0 to C17:0) and fatty acid methyl esters were evaluated for the spatial deterrence to B. dorsalis that results in oviposition reduction. Table 3 below lists the fatty acid methyl esters tested for spatial repellency for Bactrocera dorsalis. […] FIG. 16A, FIG. 16C, FIG. 16E, FIG. 16G, FIG. 16I, FIG. 16K, FIG. 16M, FIG. 16O, FIG. 16Q, and FIG. 16S show the mean numbers (±SEM) of mated female B. dorsalis flies captured, and FIG. 16B, FIG. 16D, FIG. 16F, FIG. 16H, FIG. 16J, FIG. 16L, FIG. 16N, FIG. 16P, FIG. 16R, and FIG. 16T show the number of B. dorsalis eggs oviposited in traps baited with guava juice (control) and with guava juice plus one of the coconut fatty acid methyl ester compounds in two-choice bioassays. For each test, different letter on the bar indicate a significant difference by Tukey-Kramer tests at P<0.05, n=4.

In the case of CCCCCCCC(=O)O [C8:0, caprylic acid], the “effect on female B. dorsalis attraction and oviposition to host fruit odors” value is reported as “significantly reduced”.
